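How tested: cells in 96-well plates exposed to compound for 48 hours at five concentrations. The concentration for 50% growth inhibition is given as GI50.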 Calls of active or inactive are those of the source. No stated cut-off is given here; in the data, active = GI50 up to about 1.1 µM and inactive = higher.
How the values were obtained:
Experiment in all cases: NCI-60 cell line screen, 48 h
[1] = tested on: 786-0
[2] = tested on: A498
[3] = tested on: A549
[4] = tested on: ACHN
[5] = tested on: BT-549
[6] = tested on: CAKI-1
[7] = tested on: CCRF-CEM
[8] = tested on: COLO 205
[9] = tested on: DU-145
[10] = tested on: EKVX
[11] = tested on: HCC 2998
[12] = tested on: HCT-116
[13] = tested on: HCT-15
[14] = tested on: HL-60
[15] = tested on: HOP-62
[16] = tested on: HOP-92
[17] = tested on: HT-29
[18] = tested on: Hs-578T
[19] = tested on: IGROV-1
[20] = tested on: K562
[21] = tested on: KM12
[22] = tested on: LOX IMVI
[23] = tested on: M14
[24] = tested on: MCF7
[25] = tested on: MDA-MB-231
[26] = tested on: MDA-MB-435
[27] = tested on: MOLT-4
[28] = tested on: Malme-3M
[29] = tested on: NCI-H226
[30] = tested on: NCI-H23
[31] = tested on: NCI-H460
[32] = tested on: NCI-H522
[33] = tested on: NCI/ADR-RES
[34] = tested on: OVCAR-3
[35] = tested on: OVCAR-4
[36] = tested on: OVCAR-5
[37] = tested on: OVCAR-8
[38] = tested on: PC-3
[39] = tested on: RPMI-8226
[40] = tested on: RXF 393
[41] = tested on: SF-268
[42] = tested on: SF-295
[43] = tested on: SF-539
[44] = tested on: SK-MEL-28
[45] = tested on: SK-MEL-2
[46] = tested on: SK-MEL-5
[47] = tested on: SN12C
[48] = tested on: SNB-19
[49] = tested on: SW-620
[50] = tested on: T47D
[51] = tested on: TK-10
[52] = tested on: U-251
[53] = tested on: UACC-257
[54] = tested on: UACC-62
[55] = tested on: UO-31
[56] = tested on: MDA-N
[57] = tested on: SK-OV-3
[58] = tested on: SNB-75
[59] = tested on: SR

Compound: N=C(N)N/N=C\c1c(-c2cccc([N+](=O)[O-])c2)nc2sccn12
- GI50 [1]: 3.89 µM (inactive)
- GI50 [2]: 25 µM (inactive)
- GI50 [3]: 18.1 µM (inactive)
- GI50 [4]: 2.86 µM (inactive)
- GI50 [5]: 2.1 µM (inactive)
- GI50 [6]: 17.4 µM (inactive)
- GI50 [7]: 2.93 µM (inactive)
- GI50 [8]: 2.39 µM (inactive)
- GI50 [9]: 5.16 µM (inactive)
- GI50 [10]: 15.9 µM (inactive)
- GI50 [11]: 2.39 µM (inactive)
- GI50 [12]: 7.73 µM (inactive)
- GI50 [13]: 9.68 µM
- GI50 [14]: 28.9 µM (inactive)
- GI50 [15]: 3.54 µM (inactive)
- GI50 [16]: 5.93 µM (inactive)
- GI50 [17]: 1.96 µM (inactive)
- GI50 [18]: 3.62 µM (inactive)
- GI50 [19]: 15 µM (inactive)
- GI50 [20]: 2.8 µM (inactive)
- GI50 [21]: 1.02 µM (active)
- GI50 [22]: 3.89 µM (inactive)
- GI50 [23]: 2.52 µM (inactive)
- GI50 [24]: 2.03 µM (inactive)
- GI50 [25]: 2.15 µM (inactive)
- GI50 [26]: 2.59 µM (inactive)
- GI50 [27]: 1.92 µM (inactive)
- GI50 [28]: 24.4 µM (inactive)
- GI50 [29]: 2.68 µM (inactive)
- GI50 [30]: 3.94 µM (inactive)
- GI50 [31]: 24.4 µM (inactive)
- GI50 [32]: 3.45 µM (inactive)
- GI50 [33]: > 100 µM (inactive)
- GI50 [34]: 2.79 µM (inactive)
- GI50 [35]: 1.76 µM (inactive)
- GI50 [36]: 3.91 µM (inactive)
- GI50 [37]: 1.81 µM (inactive)
- GI50 [38]: 6.7 µM (inactive)
- GI50 [39]: 17.4 µM (inactive)
- GI50 [40]: 2.64 µM (inactive)
- GI50 [41]: 2.97 µM (inactive)
- GI50 [42]: 2.64 µM (inactive)
- GI50 [43]: 17.9 µM (inactive)
- GI50 [44]: 2.04 µM (inactive)
- GI50 [45]: 2.37 µM (inactive)
- GI50 [46]: 14.6 µM (inactive)
- GI50 [47]: 2.21 µM (inactive)
- GI50 [48]: 2.09 µM (inactive)
- GI50 [49]: 2.08 µM (inactive)
- GI50 [50]: 1.62 µM (inactive)
- GI50 [51]: 2.47 µM (inactive)
- GI50 [52]: 2.79 µM (inactive)
- GI50 [53]: 23.7 µM (inactive)
- GI50 [54]: 29 µM (inactive)
- GI50 [55]: 18.5 µM (inactive)

Compound: COc1ccc(/N=C(/C[S+]([O-])c2ccc(C)cc2)C(F)(F)F)cc1 (centres undefined)
- GI50 [1]: > 100 µM (inactive)
- GI50 [3]: 78 µM (inactive)
- GI50 [4]: 50.6 µM (inactive)
- GI50 [5]: > 100 µM (inactive)
- GI50 [6]: > 100 µM (inactive)
- GI50 [7]: 61.9 µM (inactive)
- GI50 [8]: > 100 µM (inactive)
- GI50 [9]: > 100 µM (inactive)
- GI50 [10]: > 100 µM (inactive)
- GI50 [11]: 41 µM (inactive)
- GI50 [12]: > 100 µM (inactive)
- GI50 [13]: > 100 µM
- GI50 [14]: 19.1 µM (inactive)
- GI50 [16]: > 100 µM (inactive)
- GI50 [17]: > 100 µM (inactive)
- GI50 [19]: > 100 µM (inactive)
- GI50 [20]: 59.7 µM (inactive)
- GI50 [21]: 27.9 µM (inactive)
- GI50 [22]: > 100 µM (inactive)
- GI50 [23]: > 100 µM (inactive)
- GI50 [24]: > 100 µM (inactive)
- GI50 [25]: > 100 µM (inactive)
- GI50 [26]: > 100 µM (inactive)
- GI50 [56]: > 100 µM (inactive)
- GI50 [27]: 53.3 µM (inactive)
- GI50 [28]: > 100 µM (inactive)
- GI50 [29]: > 100 µM (inactive)
- GI50 [30]: > 100 µM (inactive)
- GI50 [31]: > 100 µM (inactive)
- GI50 [32]: > 100 µM (inactive)
- GI50 [33]: > 100 µM (inactive)
- GI50 [34]: > 100 µM (inactive)
- GI50 [35]: 59.7 µM (inactive)
- GI50 [36]: > 100 µM (inactive)
- GI50 [37]: > 100 µM (inactive)
- GI50 [38]: 26.5 µM (inactive)
- GI50 [40]: > 100 µM (inactive)
- GI50 [42]: 56.2 µM (inactive)
- GI50 [43]: > 100 µM (inactive)
- GI50 [44]: > 100 µM (inactive)
- GI50 [45]: 50.2 µM (inactive)
- GI50 [46]: > 100 µM (inactive)
- GI50 [57]: > 100 µM (inactive)
- GI50 [47]: > 100 µM (inactive)
- GI50 [48]: 71.8 µM (inactive)
- GI50 [58]: > 100 µM (inactive)
- GI50 [59]: > 100 µM (inactive)
- GI50 [49]: > 100 µM (inactive)
- GI50 [50]: > 100 µM (inactive)
- GI50 [51]: > 100 µM (inactive)
- GI50 [52]: > 100 µM (inactive)
- GI50 [53]: > 100 µM (inactive)
- GI50 [54]: 10.6 µM (inactive)
- GI50 [55]: 9.57 µM (inactive)
